ChEMBL document CHEMBL2057203, “Synthesis and evaluation of novel F-18 labeled 4-aminoquinazoline derivatives: potential PET imaging agents for tumor detection” (Bioorg Med Chem Lett, 2012)

Legend:
Heart [1] = test: Biodistribution in S180 tumor-bearing mouse heart at 8 to 10 uCi, iv after 60 mins by gamma counting; type: ADME, organism-based; conditions: in vivo, 1 h
Mus musculus [2] = test: Biodistribution in S180 cells xenografted in mouse tumor at 8 to 10 uCi, iv after 120 mins by gamma counting; type: ADME, organism-based, Neoplasm, CCRF S-180; conditions: in vivo, 2 h
Nucleic Acid [3] = test: Ratio of drug level in tumor to brain in S180 tumor-bearing mouse at 8 to 10 uCi, iv at 120 mins by gamma counting; type: ADME, organism-based; conditions: in vivo, 2 h
Spleen [4] = test: Biodistribution in S180 tumor-bearing mouse spleen at 8 to 10 uCi, iv after 120 mins by gamma counting; type: ADME, organism-based; conditions: in vivo, 2 h
Kidney [5] = test: Biodistribution in S180 tumor-bearing mouse kidney at 8 to 10 uCi, iv after 60 mins by gamma counting; type: ADME, organism-based; conditions: in vivo, 1 h
Kidney [6] = test: Biodistribution in S180 tumor-bearing mouse kidneys at 8 to 10 uCi, iv after 5 mins by gamma counting; type: ADME, organism-based; conditions: in vivo
Nucleic Acid [7] = test: Ratio of drug level in tumor to muscle in S180 tumor-bearing mouse at 8 to 10 uCi, iv at 5 mins by gamma counting; type: ADME, organism-based; conditions: in vivo
Heart [8] = test: Biodistribution in S180 tumor-bearing mouse heart at 8 to 10 uCi, iv after 5 mins by gamma counting; type: ADME, organism-based; conditions: in vivo
Muscle tissue [9] = test: Biodistribution in S180 tumor-bearing mouse muscle at 8 to 10 uCi, iv after 120 mins by gamma counting; type: ADME, organism-based; conditions: in vivo, 2 h
Lung [10] = test: Biodistribution in S180 tumor-bearing mouse lungs at 8 to 10 uCi, iv after 5 mins by gamma counting; type: ADME, organism-based; conditions: in vivo
Nucleic Acid [11] = test: Ratio of drug level in tumor to brain in S180 tumor-bearing mouse at 8 to 10 uCi, iv at 5 mins by gamma counting; type: ADME, organism-based; conditions: in vivo
Kidney [12] = test: Biodistribution in S180 tumor-bearing mouse kidney at 8 to 10 uCi, iv after 30 mins by gamma counting; type: ADME, organism-based; conditions: in vivo, 0.5 h
Blood [13] = test: Biodistribution in S180 tumor-bearing mouse blood at 8 to 10 uCi, iv after 120 mins by gamma counting; type: ADME, organism-based; conditions: in vivo, 2 h
Brain [14] = test: Biodistribution in S180 tumor-bearing mouse brain at 8 to 10 uCi, iv after 60 mins by gamma counting; type: ADME, organism-based; conditions: in vivo, 1 h
Spleen [15] = test: Biodistribution in S180 tumor-bearing mouse spleen at 8 to 10 uCi, iv after 60 mins by gamma counting; type: ADME, organism-based; conditions: in vivo, 1 h
Lung [16] = test: Biodistribution in S180 tumor-bearing mouse lung at 8 to 10 uCi, iv after 120 mins by gamma counting; type: ADME, organism-based; conditions: in vivo, 2 h
Lung [17] = test: Biodistribution in S180 tumor-bearing mouse lung at 8 to 10 uCi, iv after 60 mins by gamma counting; type: ADME, organism-based; conditions: in vivo, 1 h
Nucleic Acid [18] = test: Ratio of drug level in tumor to muscle in S180 tumor-bearing mouse at 8 to 10 uCi, iv at 120 mins by gamma counting; type: ADME, organism-based; conditions: in vivo, 2 h
Muscle tissue [19] = test: Biodistribution in S180 tumor-bearing mouse muscle at 8 to 10 uCi, iv after 30 mins by gamma counting; type: ADME, organism-based; conditions: in vivo, 0.5 h
Blood [20] = test: Biodistribution in S180 tumor-bearing mouse blood at 8 to 10 uCi, iv after 30 mins by gamma counting; type: ADME, organism-based; conditions: in vivo, 0.5 h
Kidney [21] = test: Biodistribution in S180 tumor-bearing mouse kidney at 8 to 10 uCi, iv after 120 mins by gamma counting; type: ADME, organism-based; conditions: in vivo, 2 h
Mus musculus [22] = test: Biodistribution in S180 cells xenografted in mouse tumor at 8 to 10 uCi, iv after 5 mins by gamma counting; type: ADME, organism-based, Neoplasm, CCRF S-180; conditions: in vivo
Brain [23] = test: Biodistribution in S180 tumor-bearing mouse brain at 8 to 10 uCi, iv after 120 mins by gamma counting; type: ADME, organism-based; conditions: in vivo, 2 h
Spleen [24] = test: Biodistribution in S180 tumor-bearing mouse spleen at 8 to 10 uCi, iv after 5 mins by gamma counting; type: ADME, organism-based; conditions: in vivo
Lung [25] = test: Biodistribution in S180 tumor-bearing mouse lung at 8 to 10 uCi, iv after 30 mins by gamma counting; type: ADME, organism-based; conditions: in vivo, 0.5 h
Liver [26] = test: Biodistribution in S180 tumor-bearing mouse liver at 8 to 10 uCi, iv after 30 mins by gamma counting; type: ADME, organism-based; conditions: in vivo, 0.5 h
Mus musculus [27] = test: Biodistribution in S180 cells xenografted in mouse tumor at 8 to 10 uCi, iv after 60 mins by gamma counting; type: ADME, organism-based, Neoplasm, CCRF S-180; conditions: in vivo, 1 h
Heart [28] = test: Biodistribution in S180 tumor-bearing mouse heart at 8 to 10 uCi, iv after 120 mins by gamma counting; type: ADME, organism-based; conditions: in vivo, 2 h
Stomach [29] = test: Biodistribution in S180 tumor-bearing mouse stomach at 8 to 10 uCi, iv after 30 mins by gamma counting; type: ADME, organism-based; conditions: in vivo, 0.5 h
Spleen [30] = test: Biodistribution in S180 tumor-bearing mouse spleen at 8 to 10 uCi, iv after 30 mins by gamma counting; type: ADME, organism-based; conditions: in vivo, 0.5 h
Plasma = test: Metabolic stability in mouse plasma after 2 hrs by radio-HPLC analysis; type: ADME, cell-free
Liver [31] = test: Biodistribution in S180 tumor-bearing mouse liver at 8 to 10 uCi, iv after 120 mins by gamma counting; type: ADME, organism-based; conditions: in vivo, 2 h
Nucleic Acid [32] = test: Ratio of drug level in tumor to brain in S180 tumor-bearing mouse at 8 to 10 uCi, iv at 30 mins by gamma counting; type: ADME, organism-based; conditions: in vivo, 0.5 h
Blood [33] = test: Biodistribution in S180 tumor-bearing mouse blood at 8 to 10 uCi, iv after 5 mins by gamma counting; type: ADME, organism-based; conditions: in vivo
Mus musculus [34] = test: Biodistribution in S180 cells xenografted in mouse tumor at 8 to 10 uCi, iv after 30 mins by gamma counting; type: ADME, organism-based, Neoplasm, CCRF S-180; conditions: in vivo, 0.5 h
Nucleic Acid [35] = test: Ratio of drug level in tumor to muscle in S180 tumor-bearing mouse at 8 to 10 uCi, iv at 30 mins by gamma counting; type: ADME, organism-based; conditions: in vivo, 0.5 h
Muscle tissue [36] = test: Biodistribution in S180 tumor-bearing mouse muscle at 8 to 10 uCi, iv after 5 mins by gamma counting; type: ADME, organism-based; conditions: in vivo
Nucleic Acid [37] = test: Ratio of drug level in tumor to brain in S180 tumor-bearing mouse at 8 to 10 uCi, iv at 60 mins by gamma counting; type: ADME, organism-based; conditions: in vivo, 1 h
Nucleic Acid [38] = test: Ratio of drug level in tumor to blood in S180 tumor-bearing mouse at 8 to 10 uCi, iv at 120 mins by gamma counting; type: ADME, organism-based; conditions: tumour, 2 h
Nucleic Acid [39] = test: Ratio of drug level in tumor to blood in S180 tumor-bearing mouse at 8 to 10 uCi, iv at 5 mins by gamma counting; type: ADME, organism-based; conditions: tumour
Liver [40] = test: Biodistribution in S180 tumor-bearing mouse liver at 8 to 10 uCi, iv after 5 mins by gamma counting; type: ADME, organism-based; conditions: in vivo
[41] = n-octanol-PBS partition coefficient, logP of the compound; type: physicochemical
Liver [42] = test: Biodistribution in S180 tumor-bearing mouse liver at 8 to 10 uCi, iv after 60 mins by gamma counting; type: ADME, organism-based; conditions: in vivo, 1 h
Heart [43] = test: Biodistribution in S180 tumor-bearing mouse heart at 8 to 10 uCi, iv after 30 mins by gamma counting; type: ADME, organism-based; conditions: in vivo, 0.5 h
Nucleic Acid [44] = test: Ratio of drug level in tumor to blood in S180 tumor-bearing mouse at 8 to 10 uCi, iv at 60 mins by gamma counting; type: ADME, organism-based; conditions: tumour, 1 h
Stomach [45] = test: Biodistribution in S180 tumor-bearing mouse stomach at 8 to 10 uCi, iv after 60 mins by gamma counting; type: ADME, organism-based; conditions: in vivo, 1 h
Stomach [46] = test: Biodistribution in S180 tumor-bearing mouse stomach at 8 to 10 uCi, iv after 120 mins by gamma counting; type: ADME, organism-based; conditions: in vivo, 2 h
Muscle tissue [47] = test: Biodistribution in S180 tumor-bearing mouse muscle at 8 to 10 uCi, iv after 60 mins by gamma counting; type: ADME, organism-based; conditions: in vivo, 1 h
Stomach [48] = test: Biodistribution in S180 tumor-bearing mouse stomach at 8 to 10 uCi, iv after 5 mins by gamma counting; type: ADME, organism-based; conditions: in vivo
[49] = Chemical stability in PBS after 2 hrs by radio-HPLC analysis at 60 degC; type: physicochemical; conditions: buffer
Blood [50] = test: Biodistribution in S180 tumor-bearing mouse blood at 8 to 10 uCi, iv after 60 mins by gamma counting; type: ADME, organism-based; conditions: in vivo, 1 h
[51] = Chemical stability in PBS after 2 hrs by radio-HPLC analysis at room temperature; type: physicochemical; conditions: buffer
Brain [52] = test: Biodistribution in S180 tumor-bearing mouse brain at 8 to 10 uCi, iv after 30 mins by gamma counting; type: ADME, organism-based; conditions: in vivo, 0.5 h
Nucleic Acid [53] = test: Ratio of drug level in tumor to blood in S180 tumor-bearing mouse at 8 to 10 uCi, iv at 30 mins by gamma counting; type: ADME, organism-based; conditions: tumour, 0.5 h
Brain [54] = test: Biodistribution in S180 tumor-bearing mouse brain at 8 to 10 uCi, iv after 5 mins by gamma counting; type: ADME, organism-based; conditions: in vivo
Blood [55] = test: Clearance in S180 tumor-bearing mouse blood at 8 to 10 uCi, iv at 120 mins; type: ADME, organism-based; conditions: in vivo, 2 h
Nucleic Acid [56] = test: Ratio of drug level in tumor to muscle in S180 tumor-bearing mouse at 8 to 10 uCi, iv at 60 mins by gamma counting; type: ADME, organism-based; conditions: in vivo, 1 h

## C#Cc1cccc(Nc2ncnc3cc(OC)c(OCC[18F])cc23)c1
Heart [1]
  Drug uptake: 1.99 % ID/g
Mus musculus [2]
  Drug uptake: 1.81 % ID/g
Nucleic Acid [3]
  Ratio: 1.21
Spleen [4]
  Drug uptake: 1.04 % ID/g
Kidney [5]
  Drug uptake: 2.53 % ID/g
Kidney [6]
  Drug uptake: 6.35 % ID/g
Nucleic Acid [7]
  Ratio: 1.89
Heart [8]
  Drug uptake: 8.68 % ID/g
Muscle tissue [9]
  Drug uptake: 1.36 % ID/g
Lung [10]
  Drug uptake: 3.6 % ID/g
Nucleic Acid [11]
  Ratio: 0.25
Kidney [12]
  Drug uptake: 4.16 % ID/g
Blood [13]
  Drug uptake: 0.77 % ID/g
Brain [14]
  Drug uptake: 0.3 % ID/g
Spleen [15]
  Drug uptake: 0.77 % ID/g
Lung [16]
  Drug uptake: 1.62 % ID/g
Lung [17]
  Drug uptake: 1.88 % ID/g
Nucleic Acid [18]
  Ratio: 1.33
Muscle tissue [19]
  Drug uptake: 1.74 % ID/g
Blood [20]
  Drug uptake: 3.06 % ID/g
Kidney [21]
  Drug uptake: 1.27 % ID/g
Mus musculus [22]
  Drug uptake: 1.4 % ID/g
Brain [23]
  Drug uptake: 1.5 % ID/g
Spleen [24]
  Drug uptake: 0.98 % ID/g
Lung [25]
  Drug uptake: 2.99 % ID/g
Liver [26]
  Drug uptake: 7.63 % ID/g
Mus musculus [27]
  Drug uptake: 2.98 % ID/g
Heart [28]
  Drug uptake: 1.03 % ID/g
Stomach [29]
  Drug uptake: 5.94 % ID/g
Spleen [30]
  Drug uptake: 1.93 % ID/g
Plasma
  Stability: Stable
Liver [31]
  Drug uptake: 3.4 % ID/g
Nucleic Acid [32]
  Ratio: 1.28
Blood [33]
  Drug uptake: 7.56 % ID/g
Mus musculus [34]
  Drug uptake: 3.32 % ID/g
Nucleic Acid [35]
  Ratio: 1.91
Muscle tissue [36]
  Drug uptake: 0.74 % ID/g
Nucleic Acid [37]
  Ratio: 9.93
Nucleic Acid [38]
  Ratio: 2.35
Nucleic Acid [39]
  Ratio: 0.19
Liver [40]
  Drug uptake: 8.75 % ID/g
[41]
  logP: 1.64
Liver [42]
  Drug uptake: 4.07 % ID/g
Heart [43]
  Drug uptake: 2.85 % ID/g
Nucleic Acid [44]
  Ratio: 2.5
Stomach [45]
  Drug uptake: 4.14 % ID/g
Stomach [46]
  Drug uptake: 1.07 % ID/g
Muscle tissue [47]
  Drug uptake: 0.82 % ID/g
Stomach [48]
  Drug uptake: 8.56 % ID/g
[49]
  Stability: Stable
Blood [50]
  Drug uptake: 1.19 % ID/g
[51]
  Stability: Stable
Brain [52]
  Drug uptake: 2.59 % ID/g
Nucleic Acid [53]
  Ratio: 1.08
Brain [54]
  Drug uptake: 5.51 % ID/g
Blood [55]
  CL: 90%
Nucleic Acid [56]
  Ratio: 3.63
